Laboratory results: US6737383B1, “Herbicidal oxadiazolidines” (priority 1999, dated 2004)

How the values were obtained:
wheat = assay: Test B pre/postemergence wheat; assay type: in vivo, Triticum aestivum; details: for Plant response rating, Wheat: Rate 250 g/ha
Summary of the method: (§1)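 Response is a visual 0-to-10 score relative to untreated plants, where 0 means no effect and 10 means complete control, taken twelve to sixteen days after application. Treatments went onto soil at planting and onto foliage of 1- to 4-leaf plants, using a surfactant-containing non-phytotoxic solvent.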

smallflower flatsedge = assay: Test B flood test smallflower flatsedge; assay type: in vivo, Cyperus difformis
Summary of the method: (§2)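 Each value is a visual injury score relative to controls, with 10 meaning complete control and 0 no effect. Evaluation took place twelve to sixteen days after the 2-leaf-stage plants were treated and kept in the greenhouse.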

purple nutsedge = assay: Test B pre/postemergence purple nutsedge; assay type: in vivo, Cyperus rotundus
Summary of the method: as §1

soybean = assay: Test B pre/postemergence soybean; assay type: in vivo, Glycine max
Summary of the method: as §1

duck salad = assay: Test B flood test duck salad; assay type: in vivo, Heteranthera limosa
Summary of the method: as §2

rice = assay: Test B flood test rice; assay type: in vivo, Oryza sativa
Summary of the method: as §2

morningglory = assay: Test B pre/postemergence morningglory; assay type: in vivo, Ipomoea hederacea
Summary of the method: as §1

blackgrass = assay: Test B pre/postemergence blackgrass; assay type: in vivo, Alopecurus myosuroides
Summary of the method: as §1

crabgrass = assay: Test B pre/postemergence crabgrass; assay type: in vivo, Digitaria sanguinalis
Summary of the method: as §1

corn = assay: Test B pre/postemergence corn; assay type: in vivo, Zea mays
Summary of the method: as §1

velvetleaf = assay: Test B pre/postemergence velvetleaf; assay type: in vivo, Abutilon theophrasti; details: for Plant response rating, Velvetleaf: Rate 250 g/ha
Summary of the method: as §1

giant foxtail = assay: Test B pre/postemergence giant foxtail; assay type: in vivo, Setaria faberii
Summary of the method: as §1

surinam grass = assay: Test B pre/postemergence surinam grass; assay type: in vivo, Brachiaria decumbens
Summary of the method: as §1

bedstraw = assay: Test B pre/postemergence bedstraw; assay type: in vivo, Galium aparine
Summary of the method: as §1

pigweed = assay: Test B pre/postemergence pigweed; assay type: in vivo, Amaranthus retroflexus
Summary of the method: as §1

wild oat = assay: Test B pre/postemergence wild oat; assay type: in vivo, Avena fatua; details: for Plant response rating, Wild oats: Rate 250 g/ha
Summary of the method: as §1

[1] = Postemergence, Rate 125 g/ha, scale of 0 to 10 where 0 is no effect and 10 is complete control
[2] = Preemergence, Rate 62 g/ha, scale 0 to 10 (0 no effect, 10 complete control)
[3] = Preemergence, Rate 125 g/ha, 0 is no effect, 10 is complete control
[4] = Preemergence, scale of 0 to 10 where 0 is no effect and 10 is complete control
[5] = Preemergence, Rate 500 g/ha, scale 0 to 10 (0 no effect, 10 complete control)
[6] = Rate 62 g/ha, Postemergence, scale of 0 to 10 where 0 is no effect and 10 is complete control
[7] = Postemergence, scale 0 to 10, 0 is no effect, 10 is complete control
[8] = Rate 500 g/ha, Postemergence, scale 0 to 10, 0 no effect, 10 complete control
[9] = Postemergence (flood test species), Rate 125 g/ha, scale of 0 to 10 where 0 is no effect and 10 is complete control
[10] = Rate 62 g/ha, Postemergence section, flood test species, scale of 0 to 10 where 0 is no effect and 10 is complete control
[11] = Rate 250 g/ha, Postemergence (flood test), scale 0 to 10, 0 is no effect, 10 is complete control
[12] = Rate 500 g/ha, listed under Postemergence (flood test species), scale 0 to 10, 0 no effect, 10 complete control
[13] = Postemergence, Rate 250 g/ha, scale 0 to 10, 0 no effect, 10 complete control
[14] = Preemergence, Rate 125 g/ha, scale 0 to 10 (0 no effect, 10 complete control)
[15] = Preemergence, Rate 250 g/ha, scale of 0 to 10 where 0 is no effect and 10 is complete control
[16] = Rate 250 g/ha, Postemergence, scale 0 to 10, 0 is no effect, 10 is complete control
[17] = Postemergence, Rate 62 g/ha, scale 0 to 10, 0 is no effect, 10 is complete control
[18] = Rate 125 g/ha, Postemergence, scale 0 to 10, 0 no effect, 10 complete control

With `CC(C)N(C(=O)n1oc(=O)n(C2CCCCC2)c1=O)c1ccc(F)cc1F` [Compound 115] the “Wheat plant response rating” value (wheat; [1]) was 0, the “Wheat plant response rating” value (wheat; [2]) was 0 and the “Wheat plant response rating (0 to 10 scale)” value (wheat; [3]) was 0. The “Plant response rating, Wheat” value (wheat; [4]) was 0, the “Wheat plant response rating” value (wheat; [5]) was 0 and the “Wheat plant response rating” value (wheat; [6]) was 0. For the same compound, the “Plant response rating, Wheat” value (wheat; [7]) was 0, the “Wheat plant response rating” value (wheat; [8]) was 0 and the “S. Flatsedge plant response rating” value (smallflower flatsedge; [9]) was 0. The “S. Flatsedge plant response rating” value (smallflower flatsedge; [10]) was 0, the “Plant response rating, S. Flatsedge” value (smallflower flatsedge; [11]) was 0 and the “S. Flatsedge plant response rating” value (smallflower flatsedge; [12]) was 0. For the same compound, the “Nutsedge plant response rating” value (purple nutsedge; [1]) was 0, the “Nutsedge plant response rating” value (purple nutsedge; [13]) was 0 and the “Nutsedge plant response rating” value (purple nutsedge; [2]) was 0. For the same compound, the “Plant response rating, Nutsedge” value (purple nutsedge; [14]) was 0, the “Plant response rating, Nutsedge” value (purple nutsedge; [15]) was 0 and the “Nutsedge plant response rating” value (purple nutsedge; [5]) was 0. For the same compound, the “Nutsedge plant response rating” value (purple nutsedge; [6]) was 0, the “Nutsedge plant response rating” value (purple nutsedge; [8]) was 0 and the “Soybean plant response rating” value (soybean; [1]) was 1. For the same compound, the “Soybean plant response rating” value (soybean; [2]) was 0, the “Plant response rating, Soybean” value (soybean; [14]) was 0 and the “Plant response rating, Soybean” value (soybean; [15]) was 0. The “Soybean plant response rating” value (soybean; [5]) was 0, the “Soybean plant response rating” value (soybean; [6]) was 1 and the “Plant response rating, Soybean” value (soybean; [16]) was 4. The “Soybean plant response rating” value (soybean; [8]) was 4, the “Ducksalad plant response rating” value (duck salad; [9]) was 0 and the “Ducksalad plant response rating” value (duck salad; [10]) was 0. For the same compound, the “Ducksalad plant response rating” value (duck salad; [12]) was 0, the “Ducksalad plant response rating” value (duck salad; flood test, listed under Postemergence, Rate 250 g/ha, scale 0 to 10, 0 no effect, 10 complete control) was 0 and the “Rice plant response rating” value (rice; [9]) was 0. For the same compound, the “Rice plant response rating” value (rice; [10]) was 0, the “Plant response rating, Rice” value (rice; [11]) was 0 and the “Rice plant response rating” value (rice; [12]) was 0. The “Morningglory plant response rating” value (morningglory; [1]) was 3, the “Morningglory plant response rating” value (morningglory; [13]) was 6 and the “Morningglory plant response rating” value (morningglory; [2]) was 0. The “Plant response rating, Morningglory” value (morningglory; [14]) was 0, the “Plant response rating, Morningglory” value (morningglory; [15]) was 0 and the “Morningglory plant response rating” value (morningglory; [5]) was 0. For the same compound, the “Morningglory plant response rating” value (morningglory; [6]) was 3, the “Morningglory plant response rating” value (morningglory; [8]) was 6 and the “Blackgrass plant response rating” value (blackgrass; [1]) was 4. The “Blackgrass plant response rating” value (blackgrass; [13]) was 6, the “Blackgrass plant response rating” value (blackgrass; [2]) was 0 and the “Plant response rating, Blackgrass” value (blackgrass; [14]) was 0. The “Plant response rating, Blackgrass” value (blackgrass; [15]) was 0, the “Blackgrass plant response rating” value (blackgrass; [5]) was 6 and the “Blackgrass plant response rating” value (blackgrass; [6]) was 4. The “Blackgrass plant response rating” value (blackgrass; [8]) was 7, the “Crabgrass plant response rating” value (crabgrass; [1]) was 0 and the “Crabgrass plant response rating” value (crabgrass; [13]) was 2. For the same compound, the “Crabgrass plant response rating” value (crabgrass; [2]) was 4, the “Plant response rating, Crabgrass” value (crabgrass; [14]) was 4 and the “Plant response rating, Crabgrass” value (crabgrass; [15]) was 7. The “Crabgrass plant response rating” value (crabgrass; [5]) was 9, the “Crabgrass plant response rating” value (crabgrass; [6]) was 0 and the “Crabgrass plant response rating” value (crabgrass; [8]) was 6. For the same compound, the “Corn plant response rating” value (corn; [1]) was 0, the “Corn plant response rating” value (corn; [13]) was 0 and the “Corn plant response rating” value (corn; [2]) was 0. The “Plant response rating, Corn” value (corn; [14]) was 0, the “Plant response rating, Corn” value (corn; [15]) was 0 and the “Corn plant response rating” value (corn; [5]) was 0. For the same compound, the “Corn plant response rating” value (corn; [6]) was 0, the “Corn plant response rating” value (corn; [8]) was 0 and the “Velvetleaf plant response rating” value (velvetleaf; [1]) was 0. The “Velvetleaf plant response rating” value (velvetleaf; [2]) was 0, the “Velvetleaf plant response rating (0 to 10 scale)” value (velvetleaf; [3]) was 0 and the “Plant response rating, Velvetleaf” value (velvetleaf; [4]) was 2. The “Velvetleaf plant response rating” value (velvetleaf; [5]) was 2, the “Velvetleaf plant response rating” value (velvetleaf; [6]) was 0 and the “Plant response rating, Velvetleaf” value (velvetleaf; [7]) was 0. The “Velvetleaf plant response rating” value (velvetleaf; [8]) was 0, the “Giant foxtail plant response rating” value (giant foxtail; [1]) was 4 and the “Giant foxtail plant response rating” value (giant foxtail; [13]) was 5. The “Giant foxtail plant response rating” value (giant foxtail; [2]) was 9, the “Plant response rating, Giant foxtail” value (giant foxtail; [14]) was 9 and the “Plant response rating, Giant foxtail” value (giant foxtail; [15]) was 9. For the same compound, the “Giant foxtail plant response rating” value (giant foxtail; [5]) was 10, the “Giant foxtail plant response rating” value (giant foxtail; [6]) was 0 and the “Giant foxtail plant response rating” value (giant foxtail; [8]) was 9. The “B. signalgrass plant response rating” value (surinam grass; [17]) was 0, the “B. signalgrass plant response rating” value (surinam grass; [13]) was 0 and the “B. signalgrass plant response rating” value (surinam grass; [2]) was 2. For the same compound, the “Plant response rating, B. signalgrass” value (surinam grass; [14]) was 2, the “Plant response rating, B. signalgrass” value (surinam grass; [15]) was 4 and the “B. signalgrass plant response rating” value (surinam grass; [5]) was 10. For the same compound, the “B. signalgrass plant response rating” value (surinam grass; [18]) was 0, the “B. signalgrass plant response rating” value (surinam grass; Rate 500 g/ha, Postemergence, scale of 0 to 10 where 0 is no effect and 10 is complete control) was 8 and the “Bedstraw plant response rating” value (bedstraw; [17]) was 0. The “Bedstraw plant response rating” value (bedstraw; [13]) was 4, the “Bedstraw plant response rating” value (bedstraw; [2]) was 0 and the “Plant response rating, Bedstraw” value (bedstraw; [14]) was 0. The “Plant response rating, Bedstraw” value (bedstraw; [15]) was 0, the “Bedstraw plant response rating” value (bedstraw; [5]) was 0 and the “Bedstraw plant response rating” value (bedstraw; [18]) was 0. The “Redroot pigweed plant response rating” value (pigweed; [1]) was 0, the “Redroot pigweed plant response rating” value (pigweed; [2]) was 5 and the “Plant response rating, Redroot pigweed” value (pigweed; [14]) was 5. For the same compound, the “Plant response rating, Redroot pigweed” value (pigweed; [15]) was 6, the “Redroot pigweed plant response rating” value (pigweed; [5]) was 8 and the “Redroot pigweed plant response rating” value (pigweed; [6]) was 0. For the same compound, the “Plant response rating, Redroot pigweed” value (pigweed; [16]) was 0, the “Redroot pigweed plant response rating” value (pigweed; [8]) was 4 and the “Wild oats plant response rating” value (wild oat; [1]) was 0. For the same compound, the “Wild oats plant response rating” value (wild oat; [2]) was 0, the “Wild oats plant response rating (0 to 10 scale)” value (wild oat; [3]) was 0 and the “Plant response rating, Wild oats” value (wild oat; [4]) was 0. The “Wild oats plant response rating” value (wild oat; [5]) was 4, the “Wild oats plant response rating” value (wild oat; [6]) was 0 and the “Plant response rating, Wild oats” value (wild oat; [7]) was 0. For the same compound, the “Wild oats plant response rating” value (wild oat; [8]) was 0.
